Results published in article PMC11434342, “Novel Autotaxin Inhibitor ATX-1d Significantly Enhances Potency of Paclitaxel—An In Silico and In Vitro Study” (Molecules, 2024).

target: T1, autotaxin (ATX) (Homo sapiens, UniProt Q13822); assay: biochemical; set-up: Inhibition of hydrolysis of fluorogenic lysophospholipid substrate FS-3 by recombinant human autotaxin, fluorescence read-out; conditions: read-out: % inhibition in ATX assay at 10 µM
T1 construct: gene ENPP2; human recombinant ATX (hATX)
Method: Human recombinant ATX (hATX) was purified as previously described. The enzymatic activity of ATX was assessed by measuring the hydrolysis of the synthetic lipid-like FRET-based substrate FS-3 from Echelon Biosciences. Compounds predicted to have potential inhibitory effects through molecular docking were initially screened at a concentration of 10 μM. The reaction mixtures were prepared in 60 μL volumes and loaded into triplicate wells of black-wall 96-well plates. The assay buffer consisted of 50 mM Tris, 140 mM NaCl, 5 mM KCl, 1 mM CaCl2, 1 mM MgCl2, and 10 μM BSA, with the pH adjusted to 8.0. Each assay contained 4 nM ATX and 1 μM FS-3. The test compounds were diluted in an assay buffer and tested in technical triplicates. […] Fluorescence readings were taken at 2 min intervals over 1 h using excitation and emission wavelengths of 485 and 538 nm. Fluorescence data were collected as relative fluorescence units (RFUs) and averaged for the triplicate samples. A compound was considered an experimentally validated hit if it caused more than 50% inhibition of FS-3 hydrolysis at 10 µM concentration. For dose–response studies, nonlinear regression analysis was performed using GraphPad Prism (GraphPad Software, version 10.0.2 (232), San Diego, CA, USA). A variable four-parameter slope model was applied to fit the data, allowing for determining the Hill slope and interpolation of the IC50 ± SD. Fluorescence measurements were conducted using the CLARIOstar Plus plate reader from BMG Labtech (BMG Labtech, Ortenberg, Baden-Württemberg, Germany). Inhibition assays targeting the ATX-mediated hydrolysis of FS-3 were performed with 45 selected compounds, each at a fixed concentration of 10 μM. Compounds were classified as experimentally validated hits if they achieved more than 50% inhibition of the hydrolysis of the model lysophospholipase D substrate FS-3. From this initial screening, only one compound, ATX-1d, met this criterion (Supplementary Information, Table S1). ATX-1d was then subjected to a dose–response assay to determine its IC50 value (Figure 4). […] BMP-22, a previously validated inhibitor of ATX, was used as a control. The second replicate is shown in the Supplementary Information, Figure S2.

SMILES	inhibition at 10 µM [%]
CCC1=N[C@](C(=O)OC)(c2ccc(Br)cc2)[C@@H]2C(=O)N(C)C(=O)C12 (some centres unmarked) [ATX-2a]	19
CCC1=N[C@](C(=O)OC)(c2cccc(OC)c2)[C@@H]2C(=O)N(C)C(=O)C12 (some centres unmarked) [ATX-2c]	13
CCN1C(=O)C2C(C)=N[C@](C(=O)OC)(c3cccc(OC)c3)[C@@H]2C1=O (some centres unmarked) [ATX-2d]	4.61
CCC1=N[C@](C(=O)OC)(c2ccc(Br)cc2)[C@@H]2C(=O)N(CC)C(=O)C12 (some centres unmarked) [ATX-2e]	10.1
COC(=O)C(OCCCCOC1=CC(=O)CC(C)(C)C1)c1ccc(Br)cc1 (centres unmarked) [ATX-4a]	18.7
COC(=O)C(OCCCCOC1=CC(=O)CC(C)(C)C1)c1cccc(OC)c1 (centres unmarked) [ATX-4b]	12.6
Cc1ccccc1C(OCCCCOC1=CC(=O)CC(C)(C)C1)C(=O)OCc1ccccc1 (centres unmarked) [ATX-4e]	33.6
COC(=O)C(OCCCCOC1=CC(=O)CC(C)(C)C1)c1cccc(Cl)c1 (centres unmarked) [ATX-4f]	40.7
COC(=O)C(OCCCCOC1=CC(=O)CC(C)(C)C1)c1ccccc1 (centres unmarked) [ATX-4g]	32.6
COC(=O)C(OCCCCOC1=CC(=O)CC(C)(C)C1)c1cccc(C(F)(F)F)c1 (centres unmarked) [ATX-4i]	15.2
COC(=O)C(OCCCCOC1=CC(=O)CC(C)(C)C1)c1cccc(F)c1 (centres unmarked) [ATX-4j]	41.4
CCOC(=O)C1C(C(=O)OCC)C12C(=O)N(C(C)=O)c1ccccc12 (centres unmarked) [ATX-5c]	-4.52
CCOC(=O)C1C(C(=O)OCC)C12C(=O)N(C(=O)OC(C)(C)C)c1ccc(Br)cc12 (centres unmarked) [ATX-5g]	-0.48
CCOC(=O)C1C(C(=O)OCC)C12C(=O)N(C(C)=O)c1ccc(C)cc12 (centres unmarked) [ATX-5j]	-10.2

More lines, now with the values ahead:

inhibition at 10 µM [%]	SMILES
42.5	COC(=O)/C(=C1\C(=O)N(C)C(=O)C1(c1ccccn1)C1CC(=O)N(C)C1=O)c1ccc(C(C)(C)C)cc1 (centres unmarked) [ATX-1a]
3.59	CCN1C(=O)CC(C2(c3ccccn3)C(=O)N(CC)C(=O)/C2=C(\C(=O)OC)c2ccccc2)C1=O (centres unmarked) [ATX-1b]
-0.36	CCOC(=O)/C(=C1\C(=O)N(C)C(=O)C1(c1ccccn1)C1CC(=O)N(C)C1=O)c1ccc(C)cc1 (centres unmarked) [ATX-1f]
7.6	CCN1C(=O)CC(C2(c3ccccn3)C(=O)N(CC)C(=O)/C2=C(\C(=O)OC)c2cccc(OC)c2)C1=O (centres unmarked) [ATX-1h]
10	CCN1C(=O)CC(C2(c3ccccn3)C(=O)N(CC)C(=O)/C2=C(\C(=O)OC)c2ccc(F)cc2)C1=O (centres unmarked) [ATX-1i]
24.9	CCC1=N[C@](C(=O)OC)(c2ccc(Br)cc2)[C@@H]2C(=O)N(Cc3ccccc3)C(=O)C12 (some centres unmarked) [ATX-2b]
3.38	CCC1=N[C@](C(=O)OC)(c2ccccc2)[C@@H]2C(=O)N(Cc3ccccc3)C(=O)C12 (some centres unmarked) [ATX-2g]
-35.9	COC(=O)C1(c2ccc(Cl)cc2)OC(c2ccc(F)cc2F)C2C(=O)N(c3ccccc3)C(=O)C21 (centres unmarked) [ATX-3c]
5.8	COC(=O)C1(c2ccc(Cl)cc2)OC(c2cccc(OC)c2)C2C(=O)N(c3ccccc3)C(=O)C21 (centres unmarked) [ATX-3f]
-30.1	COC(=O)C1(c2ccccc2)OC(c2cccc(OC)c2)C2C(=O)N(c3ccccc3)C(=O)C21 (centres unmarked) [ATX-3g]
-5.76	CCN1C(=O)C2C(c3cccc(F)c3)OC(C(=O)OC)(c3ccc(C(C)(C)C)cc3)C2C1=O (centres unmarked) [ATX-3h]
-37.4	COC(=O)C1(c2ccccc2)OC(c2cccc(F)c2)C2C(=O)N(c3ccccc3)C(=O)C21 (centres unmarked) [ATX-3i]
16.2	COC(=O)C1(c2cccc(OC)c2)OC(c2cccc(Cl)c2)C2C(=O)N(Cc3ccccc3)C(=O)C21 (centres unmarked) [ATX-3j]
-19.6	COC(=O)C(OCCCCOC1=CC(=O)CC(C)(C)C1)c1ccc(C(C)(C)C)cc1 (centres unmarked) [ATX-4c]

target: T1, autotaxin (ATX); assay: FS-3 fluorogenic substrate hydrolysis, dose-response with purified recombinant ATX ([…]); format: biochemical; conditions: not given

SMILES	IC50 [nM]
CCCCCCCCCCCCCCCc1ccc(CP(=O)(O)O)cc1 [BMP-22, reference compound]	200 ± 100
